{"source": "patent US12678427B2", "about": "“Combination therapy having antioxydant properties” (GENFIT, priority 2019, dated 2026)", "tested_on": "Nrf2-ARE-mediated transcription", "assay": "ARE Reporter - HepG2 cell line luciferase assay", "format": "cell-based, human", "conditions": "ARE reporter HepG2 cells, TZ 1 μM, ELA 3 μM, 18 h exposure, significant = fold induction over DMSO above 2 and p<0.05", "protocol": "The ARE Reporter—Hep G2 cell line is designed to monitor Nrf2 antioxidant response pathway. The cell contains a firefly luciferase gene under the control of ARE (antioxidant response element) stably integrated into Hep G2 cells.\nARE reporter—HepG2 cells (BPS Bioscience, Inc., San Diego, cat #60513) were cultured following manufacturer's instructions. After thawing (BPS thaw medium 1K, cat #60187), cells were cultured in growth-medium (BPS growth medium 1K, cat #79533) and subsequently plated at a density of 40 000 cells per well in a 96-well microplate in 45 μL of assay medium (BPS thaw medium). TZ, ELA and DL-Sulforaphane (Sigma cat #S4441) were dissolved in DMSO and diluted into assay medium. 5 μl of dilution were added on cells to reach a final concentration of 1 μM for TZ and 3 μM for ELA. DL-Sulforaphane was used as a positive control at the dose of 3 μM. After 18 h exposure, luciferase activity was determined. 50 μL of One-Step Luciferase assay system (BPS cat #60690) were added per well and after ~15 min of rocking at room temperature, luminescence was measured using a luminometer.\nFold induction over DMSO above 2 and with a p-value <0.05 was considered as significant."}
{"smiles": "O=C(Nc1ncc([N+](=O)[O-])s1)c1ccccc1O", "note": "[TZ]", "values": [{"measurement": "activation of Nrf2-antioxidant pathway compared to the untreated condition", "result": "induces a significant activation"}]}
